Measurements as given in patent US11339130B1 (Blade Therapeutics, Inc., priority 2016, dated 2022).
pIC50: −log10 of the molar value. Read-outs that look alike come from different tables or passages of the source.

Assays:
Format in all cases: biochemical
Human Calpain 9/NS1 = biological target: T1, Human Calpain 9/NS1 (Homo sapiens, UniProt O14815); experiment: Calpain inhibition continuous fluorescence (FRET) assay, Human Calpain 9/NS1; conditions: read-out: Human Calpain 9/NS1 IC50
T1 sequence (O14815 1-690): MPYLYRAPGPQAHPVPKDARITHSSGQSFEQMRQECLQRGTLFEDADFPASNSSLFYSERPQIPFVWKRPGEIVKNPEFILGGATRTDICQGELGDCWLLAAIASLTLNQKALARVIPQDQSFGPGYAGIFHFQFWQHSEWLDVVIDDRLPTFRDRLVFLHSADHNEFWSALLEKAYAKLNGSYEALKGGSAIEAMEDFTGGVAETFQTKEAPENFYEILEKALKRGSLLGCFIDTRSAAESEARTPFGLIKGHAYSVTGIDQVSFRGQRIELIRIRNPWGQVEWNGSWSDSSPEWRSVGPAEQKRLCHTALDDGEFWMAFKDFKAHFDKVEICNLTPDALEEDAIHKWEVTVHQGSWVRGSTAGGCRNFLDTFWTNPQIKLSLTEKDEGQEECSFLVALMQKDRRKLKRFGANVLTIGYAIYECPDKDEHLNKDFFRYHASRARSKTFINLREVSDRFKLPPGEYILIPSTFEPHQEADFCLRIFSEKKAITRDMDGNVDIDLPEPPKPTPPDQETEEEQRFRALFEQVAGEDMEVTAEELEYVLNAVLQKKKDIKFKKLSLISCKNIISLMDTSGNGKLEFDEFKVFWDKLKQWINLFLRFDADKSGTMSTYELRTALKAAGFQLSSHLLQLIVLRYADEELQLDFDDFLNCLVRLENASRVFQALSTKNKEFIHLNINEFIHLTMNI
T1 sequence (P04632 1-268 partner): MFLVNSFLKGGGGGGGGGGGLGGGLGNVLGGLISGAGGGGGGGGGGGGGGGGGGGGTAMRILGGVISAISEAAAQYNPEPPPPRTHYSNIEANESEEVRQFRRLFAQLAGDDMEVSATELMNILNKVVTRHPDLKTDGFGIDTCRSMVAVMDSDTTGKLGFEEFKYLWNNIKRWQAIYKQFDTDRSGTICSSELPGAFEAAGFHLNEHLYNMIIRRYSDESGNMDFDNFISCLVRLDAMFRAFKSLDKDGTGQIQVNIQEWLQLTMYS
How it was run: (§1)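 Human calpains 1, 2 and 9 preincubated with inhibitor at 25 °C in 50 mM Tris pH 7.5, 100 mM NaCl, 1 mM DTT; reaction started with 5-FAM/QXL 520 FRET peptide plus CaCl2 for activation. Fluorescence (490/520 nm) followed 10 min; rates from 1-5 min slopes fitted to 4-parameter logistic for IC50.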

Human Calpain 1/NS1 = biological target: T2, Human Calpain 1/NS1 (Homo sapiens, UniProt P07384); experiment: Calpain inhibition continuous fluorescence (FRET) assay, Human Calpain 1/NS1; conditions: read-out: Human Calpain 1/NS1 IC50
T2 sequence (P07384 1-714): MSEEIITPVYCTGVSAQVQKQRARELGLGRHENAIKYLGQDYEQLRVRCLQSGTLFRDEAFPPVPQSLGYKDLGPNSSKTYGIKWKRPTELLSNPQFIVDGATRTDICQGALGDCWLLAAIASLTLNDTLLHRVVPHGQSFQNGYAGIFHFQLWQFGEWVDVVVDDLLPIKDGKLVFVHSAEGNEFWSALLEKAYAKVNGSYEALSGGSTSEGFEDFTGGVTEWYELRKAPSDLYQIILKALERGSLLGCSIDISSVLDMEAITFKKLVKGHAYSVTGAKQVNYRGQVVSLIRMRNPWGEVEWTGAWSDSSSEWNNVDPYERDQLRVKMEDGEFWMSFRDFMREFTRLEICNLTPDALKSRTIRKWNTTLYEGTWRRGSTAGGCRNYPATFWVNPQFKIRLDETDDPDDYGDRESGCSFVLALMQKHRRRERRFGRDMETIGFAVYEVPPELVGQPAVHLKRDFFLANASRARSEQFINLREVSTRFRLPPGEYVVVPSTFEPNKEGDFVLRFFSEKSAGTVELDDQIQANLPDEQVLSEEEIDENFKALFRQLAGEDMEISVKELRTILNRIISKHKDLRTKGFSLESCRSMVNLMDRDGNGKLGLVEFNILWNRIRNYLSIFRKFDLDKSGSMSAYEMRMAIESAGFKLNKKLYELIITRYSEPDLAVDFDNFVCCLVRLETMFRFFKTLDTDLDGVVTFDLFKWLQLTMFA
T2 sequence (P04632 1-268 partner): T1 sequence (P04632 1-268 partner)
How it was run: as §1

Human Calpain 2/NS1 = biological target: T3, Human Calpain 2/NS1 (Homo sapiens, UniProt P17655); experiment: Calpain inhibition continuous fluorescence (FRET) assay, Human Calpain 2/NS1; conditions: read-out: Human Calpain 2/NS1 IC50
T3 sequence (P17655 1-700): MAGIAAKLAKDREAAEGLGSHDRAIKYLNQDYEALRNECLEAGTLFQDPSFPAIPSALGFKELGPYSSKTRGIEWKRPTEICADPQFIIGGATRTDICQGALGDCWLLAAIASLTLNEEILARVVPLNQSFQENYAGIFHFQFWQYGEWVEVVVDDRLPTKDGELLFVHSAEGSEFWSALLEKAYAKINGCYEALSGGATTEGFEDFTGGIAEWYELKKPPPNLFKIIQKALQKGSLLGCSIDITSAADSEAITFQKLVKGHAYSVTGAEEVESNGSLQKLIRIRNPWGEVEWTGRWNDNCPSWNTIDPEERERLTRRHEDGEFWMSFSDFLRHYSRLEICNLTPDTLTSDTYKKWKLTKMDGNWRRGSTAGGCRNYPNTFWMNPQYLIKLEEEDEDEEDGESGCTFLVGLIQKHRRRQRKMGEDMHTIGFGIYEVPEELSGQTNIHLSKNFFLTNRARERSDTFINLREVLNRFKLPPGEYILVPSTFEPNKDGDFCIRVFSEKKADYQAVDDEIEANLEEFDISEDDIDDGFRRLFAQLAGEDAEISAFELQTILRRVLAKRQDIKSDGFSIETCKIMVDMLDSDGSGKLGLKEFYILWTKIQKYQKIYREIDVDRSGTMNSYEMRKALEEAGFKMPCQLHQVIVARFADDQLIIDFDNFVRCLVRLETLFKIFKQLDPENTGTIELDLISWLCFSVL
T3 sequence (P04632 1-268 partner): T1 sequence (P04632 1-268 partner)
How it was run: as §1

| SMILES | pIC50 (Human Calpain 9/NS1; Column C) | pIC50 (Human Calpain 1/NS1; Column A) | pIC50 (Human Calpain 2/NS1; Column B) | pIC50 (Human Calpain 9/NS1) | pIC50 (Human Calpain 1/NS1) | pIC50 (Human Calpain 2/NS1) |
| --- | --- | --- | --- | --- | --- | --- |
| NC(=O)C(=O)[C@H](Cc1ccccc1)NC(=O)c1ccsc1-c1ccccc1 [Compound 270, (S)—N-(4-amino-3,4-dioxo-1-phenylbutan-2-yl)-2-phenylthiophene-3-carboxamide] | > 5.52 | > 5.52 | > 5.52 |  |  |  |
| Cc1nc(-c2ccccc2)c(C(=O)NC(Cc2cc(Cl)cc(Cl)c2)C(=O)C(N)=O)o1 (stereo not drawn) [Compound 390, N-(4-amino-1-(3,5-dichlorophenyl)-3,4-dioxobutan-2-yl)-2-methyl-4-phenyloxazole-5-carboxamide] |  |  |  | > 5.52 | > 5.52 | > 5.52 |
| N#Cc1cc(C(=O)N[C@@H](Cc2ccccc2)C(=O)C(N)=O)n(-c2ccccc2)n1 [Compound 272, (S)—N-(4-amino-3,4-dioxo-1-phenylbutan-2-yl)-3-cyano-1-phenyl-1H-pyrazole-5-carboxamide] | 5.00 to 5.52 | < 5.00 | 5.00 to 5.52 |  |  |  |
| O=C(NC1CC1)C(=O)[C@H](Cc1ccccc1)NC(=O)c1scnc1-c1ccccn1 [Compound 61] | > 5.52 | > 5.52 | > 5.52 |  |  |  |
| Cc1noc(-c2ccccc2)c1C(=O)N[C@@H](Cc1ccccc1)C(=O)C(=O)NCc1cccc(S(C)(=O)=O)c1 [Compound 152, (s)-3-methyl-N-(4-((3-(methylsulfonyl)benzyl)amino)-3,4-dioxo-1-phenylbutan-2-yl)-5-phenylisoxazole-4-carboxamide] | > 5.52 | > 5.52 | > 5.52 |  |  |  |
| C=CC[C@H](NC(=O)c1cn(C)nc1-c1ccccc1)C(=O)C(N)=O [Compound 195, N-(1-amino-1,2-dioxohex-5-en-3-yl)-1-methyl-3-phenyl-1H-pyrazole-4-carboxamide] | > 5.52 | > 5.52 | 5.00 to 5.52 |  |  |  |
| Cn1cnc(C(=O)N[C@@H](Cc2ccccc2)C(=O)C(N)=O)c1-c1ccccc1 [Compound 269, (S)—N-(4-amino-3,4-dioxo-1-phenylbutan-2-yl)-1-methyl-5-phenyl-1H-imidazole-4-carboxamide] | > 5.52 | 5.00 to 5.52 | 5.00 to 5.52 |  |  |  |
| Cn1cc(C(=O)N[C@@H](Cc2ccccc2)C(=O)C(N)=O)c(Br)n1 [Compound 196, (S)—N-(4-amino-3,4-dioxo-1-phenylbutan-2-yl)-3-bromo-1-methyl-1H-pyrazole-4-carboxamide] | 5.00 to 5.52 | > 5.52 | > 5.52 |  |  |  |
| Cc1cc(C(=O)N[C@@H](Cc2ccccc2)C(=O)C(N)=O)nn1-c1nc2ccccc2[nH]1 [Compound 264, (S)—N-(4-amino-3,4-dioxo-1-phenylbutan-2-yl)-1-(1H-benzo[d]imidazol-2-yl)-5-methyl-1H-pyrazole-3-carboxamide] | < 5.00 | 5.00 to 5.52 | 5.00 to 5.52 |  |  |  |
| Cc1cc(C(F)(F)F)cc(-n2nc(C)cc2C(=O)N[C@@H](Cc2ccccc2)C(=O)C(=O)NC2CC2)n1 [Compound 206, (S)—N-(4-(cyclopropylamino)-3,4-dioxo-1-phenylbutan-2-yl)-3-methyl-1-(6-methyl-4-(trifluoromethyl)pyridin-2-yl)-1H-pyrazole-5-carboxamide] | < 5.00 | > 5.52 | < 5.00 |  |  |  |
| Cc1cc(C(=O)N[C@@H](Cc2ccccc2)C(=O)C(=O)NC2CC2)n(-c2ccc(C(F)(F)F)cn2)n1 [Compound 122, (S)—N-(4-(cyclopropylamino)-3,4-dioxo-1-phenylbutan-2-yl)-3-methyl-1-(5-(trifluoromethyl)pyridin-2-yl)-1H-pyrazole-5-carboxamide] | > 5.52 | > 5.52 | > 5.52 |  |  |  |
| Cn1cc(C(=O)NC(Cc2ccccc2)C(=O)C(N)=O)c(-c2ccc(C(F)(F)F)nc2)n1 (stereo not drawn) [Compound 315, N-(4-amino-3,4-dioxo-1-phenylbutan-2-yl)-1-methyl-3-(6-(trifluoromethyl)pyridin-3-yl)-1H-pyrazole-4-carboxamide] |  |  |  | > 5.52 | 5.00 to 5.52 | 5.00 to 5.52 |
| Cc1cc(C(=O)N[C@@H](Cc2ccccc2)C(=O)C(N)=O)n(-c2cncnc2)n1 [Compound 138, (S)—N-(4-amino-3,4-dioxo-1-phenylbutan-2-yl)-3-methyl-1-(pyrimidin-5-yl)-1H-pyrazole-5-carboxamide] | > 5.52 | > 5.52 | > 5.52 |  |  |  |
| O=C[C@H](Cc1ccccc1)NC(=O)[C@@H]1CCCN1c1nc2ccccc2o1 [Compound 4, (S)-1-(benzo[D]oxazol-2-yl)-N—((S)-1-oxo-3-phenylpropan-2-yl)pyrrolidine-2-carboxamide] | > 5.52 | > 5.52 | > 5.52 |  |  |  |
| Cc1cc(C)cc(C[C@H](NC(=O)c2c(C)noc2-c2ccccc2)C(=O)C(N)=O)c1 [Compound 97, (S)—N-(4-amino-1-(3,5-dimethylphenyl)-3,4-dioxobutan-2-yl)-3-methyl-5-phenylisoxazole-4-carboxamide] | > 5.52 | > 5.52 | > 5.52 |  |  |  |
| NC(=O)C(=O)[C@H](Cc1ccccc1)NC(=O)c1[nH]cnc1-c1ccccc1 [Compound 48, (S)—N-(4-amino-3,4-dioxo-1-phenylbutan-2-yl)-4-phenyl-1H-imidazole-5-carboxamide] | 5.00 to 5.52 | 5.00 to 5.52 | 5.00 to 5.52 |  |  |  |
| Cn1cc(C(=O)NC(Cc2ccccc2)C(=O)C(N)=O)c(-c2coc3ccccc23)n1 (stereo not drawn) [Compound 628, N-(4-amino-3,4-dioxo-1-phenylbutan-2-yl)-3-(benzofuran-3-yl)-1-methyl-1H-pyrazole-4-carboxamide] |  |  |  | > 5.52 | > 5.52 | > 5.52 |
| NC(=O)C(=O)[C@H](Cc1ccccc1)NC(=O)c1cncn1-c1ccccc1 [Compound 7, (S)—N-(4-amino-3,4-dioxo-1-phenylbutan-2-yl)-1-phenyl-1H-imidazole-5-carboxamide] | > 5.52 | > 5.52 | > 5.52 |  |  |  |
| Cc1noc(-c2ccccc2)c1C(=O)N[C@@H](CC(C)(C)C)C(=O)C(N)=O [Compound 56] | > 5.52 | > 5.52 | > 5.52 |  |  |  |
